According to publication PMC6347702 (Proceedings of the National Academy of Sciences of the …, 2019):

How the values were obtained:
Assay in all cases: spectrophotometric enzyme assay, recombinant human enzyme, […] ATP-Mg2+
Format in all cases: biochemical
[1] = target: T1, hexokinase 1 (∆21-hHK1) (Homo sapiens, UniProt P19367)
T1 sequence (P19367 22-917): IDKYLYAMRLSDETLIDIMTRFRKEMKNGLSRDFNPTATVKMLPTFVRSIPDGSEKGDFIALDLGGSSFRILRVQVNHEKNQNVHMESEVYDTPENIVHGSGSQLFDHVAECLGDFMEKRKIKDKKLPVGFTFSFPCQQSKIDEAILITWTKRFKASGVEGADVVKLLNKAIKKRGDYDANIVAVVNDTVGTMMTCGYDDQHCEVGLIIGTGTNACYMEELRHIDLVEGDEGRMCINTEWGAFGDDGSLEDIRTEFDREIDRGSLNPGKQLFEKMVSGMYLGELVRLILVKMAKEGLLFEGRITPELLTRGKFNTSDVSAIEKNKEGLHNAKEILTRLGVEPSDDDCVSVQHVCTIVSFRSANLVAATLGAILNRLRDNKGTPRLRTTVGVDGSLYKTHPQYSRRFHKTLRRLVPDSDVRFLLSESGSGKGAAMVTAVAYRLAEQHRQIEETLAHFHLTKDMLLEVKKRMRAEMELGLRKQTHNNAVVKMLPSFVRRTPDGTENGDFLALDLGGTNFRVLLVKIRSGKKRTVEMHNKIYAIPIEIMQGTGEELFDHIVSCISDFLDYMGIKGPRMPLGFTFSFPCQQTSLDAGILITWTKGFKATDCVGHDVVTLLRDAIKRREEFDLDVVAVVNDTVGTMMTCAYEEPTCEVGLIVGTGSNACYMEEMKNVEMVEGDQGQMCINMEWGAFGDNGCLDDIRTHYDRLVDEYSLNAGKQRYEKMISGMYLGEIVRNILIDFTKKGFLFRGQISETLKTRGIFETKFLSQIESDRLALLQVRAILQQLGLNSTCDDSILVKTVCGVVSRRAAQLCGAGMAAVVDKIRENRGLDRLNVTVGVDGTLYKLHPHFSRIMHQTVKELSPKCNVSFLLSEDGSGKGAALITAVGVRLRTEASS

[2] = target: T2, hexokinase 2 (∆28-hHK2) (Homo sapiens, UniProt P52789)
T2 sequence (P52789 29-917): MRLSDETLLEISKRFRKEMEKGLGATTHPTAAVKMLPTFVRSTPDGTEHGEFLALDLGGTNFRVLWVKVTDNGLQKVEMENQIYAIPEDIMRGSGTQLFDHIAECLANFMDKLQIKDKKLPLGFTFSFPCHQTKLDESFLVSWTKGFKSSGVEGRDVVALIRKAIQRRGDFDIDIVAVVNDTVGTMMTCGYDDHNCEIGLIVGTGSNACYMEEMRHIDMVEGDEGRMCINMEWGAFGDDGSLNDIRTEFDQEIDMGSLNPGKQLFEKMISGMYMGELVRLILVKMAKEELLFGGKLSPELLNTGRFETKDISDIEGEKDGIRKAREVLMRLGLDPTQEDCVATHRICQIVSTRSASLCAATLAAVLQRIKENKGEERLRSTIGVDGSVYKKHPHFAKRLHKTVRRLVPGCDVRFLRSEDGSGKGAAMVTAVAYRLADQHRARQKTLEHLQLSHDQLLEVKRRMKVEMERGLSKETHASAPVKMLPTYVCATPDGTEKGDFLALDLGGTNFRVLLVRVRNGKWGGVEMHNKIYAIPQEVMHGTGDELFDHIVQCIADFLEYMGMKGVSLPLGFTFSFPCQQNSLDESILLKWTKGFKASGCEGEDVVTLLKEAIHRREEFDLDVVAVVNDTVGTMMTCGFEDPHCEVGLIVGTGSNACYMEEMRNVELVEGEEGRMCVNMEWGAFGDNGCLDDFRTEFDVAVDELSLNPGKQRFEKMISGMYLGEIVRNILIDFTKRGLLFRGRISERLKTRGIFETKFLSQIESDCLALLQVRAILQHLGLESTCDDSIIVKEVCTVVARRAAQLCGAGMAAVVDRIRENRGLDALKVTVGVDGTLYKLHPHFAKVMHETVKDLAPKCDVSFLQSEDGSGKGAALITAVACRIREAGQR

[3] = target: T3, hexokinase 3 (hHK3) (Homo sapiens, UniProt P52790)
T3 sequence (P52790 1-923): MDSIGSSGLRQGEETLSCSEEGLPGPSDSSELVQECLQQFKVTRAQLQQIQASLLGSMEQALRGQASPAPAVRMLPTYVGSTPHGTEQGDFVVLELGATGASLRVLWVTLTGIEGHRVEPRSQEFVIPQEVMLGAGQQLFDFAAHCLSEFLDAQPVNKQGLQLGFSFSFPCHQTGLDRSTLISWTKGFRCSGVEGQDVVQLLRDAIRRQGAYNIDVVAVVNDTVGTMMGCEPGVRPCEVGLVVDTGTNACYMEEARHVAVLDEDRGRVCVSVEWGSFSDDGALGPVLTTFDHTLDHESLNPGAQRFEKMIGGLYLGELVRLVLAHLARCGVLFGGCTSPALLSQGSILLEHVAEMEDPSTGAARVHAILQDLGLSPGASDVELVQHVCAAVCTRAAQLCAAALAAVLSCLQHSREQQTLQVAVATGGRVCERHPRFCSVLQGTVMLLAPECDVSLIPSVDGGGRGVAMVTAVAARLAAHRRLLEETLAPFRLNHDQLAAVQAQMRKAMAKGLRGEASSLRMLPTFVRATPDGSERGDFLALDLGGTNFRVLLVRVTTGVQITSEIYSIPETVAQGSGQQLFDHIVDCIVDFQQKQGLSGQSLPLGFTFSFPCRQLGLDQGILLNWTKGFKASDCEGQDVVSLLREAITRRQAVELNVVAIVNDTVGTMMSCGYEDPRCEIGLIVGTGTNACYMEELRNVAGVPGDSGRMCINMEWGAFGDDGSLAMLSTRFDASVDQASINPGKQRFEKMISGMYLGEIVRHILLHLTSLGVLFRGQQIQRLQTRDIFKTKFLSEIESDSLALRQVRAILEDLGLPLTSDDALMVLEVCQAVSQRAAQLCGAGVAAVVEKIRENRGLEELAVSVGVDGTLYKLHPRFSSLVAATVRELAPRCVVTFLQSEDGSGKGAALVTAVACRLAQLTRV

- Ki [1]: 53 ± 2 µM
- Ki [2]: 96 ± 3 µM
- Ki [3]: 134 ± 9 µM
SMILES: O=P(O)(O)OC[C@H]1OC[C@H](O)[C@@H](O)[C@@H]1O [1,5AG6P, 1,5-anhydroglucitol-6-phosphate]
